Source: PMC9160031, “Identification of HMGCR as the anticancer target of physapubenolide against melanoma cells by in silico target prediction” (Acta Pharmacologica Sinica, 2021)

Molecular target: T1, 3-hydroxy-methylglutaryl CoA reductase (HMGCR) (Homo sapiens, UniProt P04035)
T1 sequence (P04035 1-888): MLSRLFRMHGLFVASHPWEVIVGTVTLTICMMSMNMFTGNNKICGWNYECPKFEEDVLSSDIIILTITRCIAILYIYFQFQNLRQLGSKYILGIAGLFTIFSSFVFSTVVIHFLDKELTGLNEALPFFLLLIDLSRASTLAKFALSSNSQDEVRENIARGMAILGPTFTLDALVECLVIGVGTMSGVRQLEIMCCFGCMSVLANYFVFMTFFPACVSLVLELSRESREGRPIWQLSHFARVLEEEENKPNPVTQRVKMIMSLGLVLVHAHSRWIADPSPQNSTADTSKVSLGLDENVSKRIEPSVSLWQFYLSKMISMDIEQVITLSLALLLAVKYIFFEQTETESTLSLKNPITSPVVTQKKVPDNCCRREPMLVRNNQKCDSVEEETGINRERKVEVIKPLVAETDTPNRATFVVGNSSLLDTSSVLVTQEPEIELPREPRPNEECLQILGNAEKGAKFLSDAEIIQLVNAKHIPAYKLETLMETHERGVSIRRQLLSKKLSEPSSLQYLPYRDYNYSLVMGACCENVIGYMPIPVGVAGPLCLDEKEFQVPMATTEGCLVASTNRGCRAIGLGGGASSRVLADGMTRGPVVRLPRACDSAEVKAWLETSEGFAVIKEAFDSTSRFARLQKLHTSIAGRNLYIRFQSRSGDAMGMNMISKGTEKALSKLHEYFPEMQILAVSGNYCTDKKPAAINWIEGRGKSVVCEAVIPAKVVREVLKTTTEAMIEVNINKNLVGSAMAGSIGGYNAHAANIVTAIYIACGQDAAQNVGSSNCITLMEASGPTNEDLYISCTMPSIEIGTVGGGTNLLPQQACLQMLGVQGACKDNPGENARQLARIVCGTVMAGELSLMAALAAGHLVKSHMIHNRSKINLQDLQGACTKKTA
Assay: SPR direct binding assay (PB listed as stationary phase)

`CC(=O)O[C@H]1CC([C@H](C)C2CC(C)=C(C)C(=O)O2)[C@@]2(C)CCC3C(C[C@H]4O[C@]45[C@@H](O)C=CC(=O)[C@]35C)[C@]12O` (stereo partly shown) [PB, Physapubenolide] showed a Kd of 1460 nM.
